Test results as given in ChEMBL document CHEMBL1133355, “Pyrrolo[3,2,1-ij]quinoline derivatives, a 5-HT2c receptor agonist with selectivity over the 5-HT2a receptor: potential therapeutic applications for epilepsy and obesity” (Bioorg Med Chem Lett, 2000).

Tests used:
[1] = molecular target: T1, 5-hydroxytryptamine receptor 2A (Homo sapiens, UniProt P28223); experiment: In vitro binding affinity towards human 5-hydroxytryptamine 2A receptor expressed in HEK293 cells was determined using [3H]ketanserin as radioligand; assay type: cell-based
[2] = molecular target: T2, 5-hydroxytryptamine receptor 2C (Homo sapiens, UniProt P28335); experiment: Functional agonist activity of compound was determined by fluorescence-based assay measuring intracellular calcium mobilization for 5-HT2c receptor cell line
T2 sequence (P28335 whole entry): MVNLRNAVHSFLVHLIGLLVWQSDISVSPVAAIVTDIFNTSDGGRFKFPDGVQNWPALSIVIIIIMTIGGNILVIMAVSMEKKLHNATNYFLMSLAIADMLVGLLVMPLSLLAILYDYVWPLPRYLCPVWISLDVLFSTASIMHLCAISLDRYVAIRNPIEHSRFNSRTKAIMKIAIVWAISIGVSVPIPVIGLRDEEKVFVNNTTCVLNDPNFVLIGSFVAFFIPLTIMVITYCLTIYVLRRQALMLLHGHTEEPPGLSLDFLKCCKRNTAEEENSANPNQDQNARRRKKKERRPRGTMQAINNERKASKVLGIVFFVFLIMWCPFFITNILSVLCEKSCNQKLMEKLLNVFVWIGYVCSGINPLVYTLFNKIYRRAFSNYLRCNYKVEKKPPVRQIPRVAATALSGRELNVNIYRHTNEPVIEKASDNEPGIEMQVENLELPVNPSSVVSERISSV

[3] = molecular target: T2, 5-hydroxytryptamine receptor 2C; experiment: In vitro binding affinity towards human 5-hydroxytryptamine 2C receptor expressed in HEK293 cells was determined using [3H]mesulergine as radioligand; assay type: cell-based
[4] = Binding ratio of compound to 5-HT2a to that of 5-HT2c was determined
[5] = molecular target: T1, 5-hydroxytryptamine receptor 2A; experiment: Functional antagonist activity of compound was determined by fluorescence-based assay measuring intracellular calcium mobilization for 5-HT2a receptor cell line
[6] = molecular target: T1, 5-hydroxytryptamine receptor 2A; experiment: Functional agonist activity of compound was determined by fluorescence-based assay measuring intracellular calcium mobilization for 5-HT2a receptor cell line

T1 sequence (P28223 whole entry): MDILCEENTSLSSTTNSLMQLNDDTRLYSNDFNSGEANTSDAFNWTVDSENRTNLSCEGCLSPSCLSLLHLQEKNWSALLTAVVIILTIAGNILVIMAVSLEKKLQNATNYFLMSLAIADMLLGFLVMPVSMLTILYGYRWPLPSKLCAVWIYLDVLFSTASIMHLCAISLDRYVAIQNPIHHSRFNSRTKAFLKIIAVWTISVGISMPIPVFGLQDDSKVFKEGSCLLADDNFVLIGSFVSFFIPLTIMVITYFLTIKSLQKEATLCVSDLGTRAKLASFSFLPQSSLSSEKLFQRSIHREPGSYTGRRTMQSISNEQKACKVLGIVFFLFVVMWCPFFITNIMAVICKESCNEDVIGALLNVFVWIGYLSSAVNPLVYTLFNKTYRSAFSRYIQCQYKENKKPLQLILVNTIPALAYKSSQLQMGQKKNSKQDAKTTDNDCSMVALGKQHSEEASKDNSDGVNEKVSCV

| SMILES | Ki [1] [nM] | EC50 [2] [nM] | Ki [3] [nM] | Ratio [4] | EC50 [5] [nM] | EC50 [6] [nM] |
| --- | --- | --- | --- | --- | --- | --- |
| Cc1c(CCN)c2cccc3c2n1CCC3 | 676 | 9 | 225 | 3 |  |  |
| CNCCc1cn2c3c(cc(F)cc13)CCC2C (centres undefined) | 1460 | 180 | 33 | 44 | 1100 | > 10000 |
| Cc1c(CCN)c2cc(F)cc3c2n1C(C)CC3 (centres undefined) | 954 | 41 | 194 | 4.9 |  |  |
| CC1CCc2cc(F)cc3c(CCN)cn1c23 (centres undefined) | 2340 | 5.7 | 18 | 130 |  | 269 |
| NCCc1cn2c3c(cccc13)CCC2 | 794 | 0.2 | 41 | 19.4 |  | 145 |
| NCCc1cn2c3c(cc(Cl)cc13)SCC2 | 631 | 0.23 | 47 | 13.4 |  | 348 |
